# Experimental data taken from patent EP4755892A1, “KINESIN KIF18A INHIBITOR AND USE THEREOF” (Shanghai Apeiron Therapeutics Company Limited, priority 2023, dated 2025).
# Where two headings read alike, the source gives them in different places.
# Assays:
# [1] = target: T1, Human KIF18A (amino acid sequence 1-417) (Homo sapiens, UniProt Q8NI77); assay: Enzymatic Activity Test (ADP-Glo, microtubule-stimulated KIF18A ATPase); type: biochemical; conditions: 60 µg/mL microtubules, 25 µM ATP, 2.5 nM KIF18A protein, 120 min at ambient temperature, chemiluminescence; read-out: KIF 18A IC50
# T1 construct: purchased Viva Biotech (Shanghai) Ltd
# T1 sequence (Q8NI77 1-417): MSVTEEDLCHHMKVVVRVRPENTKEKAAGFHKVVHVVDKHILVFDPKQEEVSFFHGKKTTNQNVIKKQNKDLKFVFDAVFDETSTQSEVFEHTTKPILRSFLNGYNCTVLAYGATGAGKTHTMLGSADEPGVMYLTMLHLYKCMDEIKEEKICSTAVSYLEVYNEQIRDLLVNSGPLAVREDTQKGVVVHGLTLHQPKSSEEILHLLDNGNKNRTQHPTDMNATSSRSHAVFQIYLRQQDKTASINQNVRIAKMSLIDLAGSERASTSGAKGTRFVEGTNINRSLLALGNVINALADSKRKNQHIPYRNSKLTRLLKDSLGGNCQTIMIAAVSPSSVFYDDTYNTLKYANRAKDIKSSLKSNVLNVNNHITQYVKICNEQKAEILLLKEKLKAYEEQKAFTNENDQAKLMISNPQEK
# Method: Assay 1: Enzymatic Activity Test
# Materials: Human KIF18A (amino acid sequence 1-417) was purchased from Viva Biotech (Shanghai) Ltd.; the ADP-Glo™ protein kinase kit was acquired from Promega, USA; tubulin was sourced from Cytoskeleton, USA; and the 384-well assay plate and Envision multifunctional microplate reader were obtained from PerkinElmer, USA.
# Enzymatic Activity Test: The compound powder was dissolved in DMSO to prepare a stock solution of 10 mM. Then gradient dilution was performed for the compounds in the microplate to achieve a final concentration of 0-10 µM. Then, 2.5 µL each of tubulin, compound, ATP, and KIF18A protein were added to the microplate in sequence for reaction at ambient temperature for 120 min. The final concentrations in the enzyme reaction were 60 µg/mL for microtubules, 25 µM for ATP, and 2.5 nM for KIF18A protein. After the enzyme reaction, 10 µL of ADP-GLO reaction reagent was added to each well and incubated at room temperature for 30 min. After that, 20 µL of detection reagent was added to each well and incubated at room temperature for 30 min in the dark. Finally, chemiluminescence detection was performed using the PerkinElmer Envision.
# OVCAR3 cells = assay: Cell Proliferation Activity Test (CyQUANT Direct), OVCAR3; type: cell-based; conditions: compound 0-10 µM, 3 days, 0.2% DMSO, CyQUANT fluorescence, read-out: OVCAR-3 _IC50_nM
# Method: Assay 2: Cell Proliferation Activity Test
# Materials and Cells: OVCAR3 cells were purchased from Nanjing Cobioer Biosciences Co., Ltd. RPMI-1640 medium, fetal bovine serum, and the CyQUANT Direct Cell Proliferation Assay kit were purchased from Thermo Fisher Scientific, USA; 96-well cell culture plates were sourced from Coming, USA.
# Cell Culture: OVCAR3 cells were cultured with RPMI-1640 medium containing 10% fetal bovine serum and incubated in a 5% CO2 incubator at 37°C. Only cells in the logarithmic growth phase could be used for the test.
# Cell Proliferation Activity Test:
# OVCAR3 cells were inoculated into a 96-well cell culture plate at 90 µL per well and incubated overnight in a 5% CO2 incubator at 37°C. The compound powder was dissolved in DMSO to prepare a stock solution of 10 mM. Then gradient dilution was performed for the compounds in the microplate to achieve a final concentration of 0-10 µM. 10 µL of cell culture medium containing compounds was added to each well to make the final DMSO content 0.2%. The cell plates were incubated in a 5% CO2 incubator at 37°C for 3 days. 100 µL of CyQUANT detection reagent was added to each well, reacted at 37°C for 60 min, and fluorescence detection was performed using the PerkinElmer Envision.
# HT29 cells = assay: CyQuant Cell Proliferation Activity Test, HT29; type: cell-based; conditions: HT29 cells 2000 per well, initial concentration 3000 nM, 3-fold dilution, 3 days, 0.2% DMSO, read-out: HT29_IC50 _nM
# Method: Assay 3: CyQuant Cell Proliferation Activity Test
# Materials and Cells: HT29 cells were purchased from Nanjing Cobioer Biosciences Co., Ltd.; RPMI-1640 medium, fetal bovine serum, Trypsin-EDTA (0.25%), 96-well plates, and CyQuant reagents were purchased from ThermoFisher (USA); DMSO was purchased from SIGMA (USA).
# Cell Culture: HT29 cells were cultured with RPMI-1640 containing 10% fetal bovine serum under the condition of 37°C and 5% CO2. Only cells in the logarithmic growth phase could be used for the test.
# Cell Proliferation Activity Test: CyQuant reagent was used to detect the proliferation inhibitory activity of compounds on HT29 cells. The cell density was adjusted, and 100 µL per well was inoculated into a 96-well plate (HT29 at 2000 cells per well), then incubated overnight at 37°C and 5% CO2. Add compounds of various target concentrations (initial concentration of 3000 nM, 3-fold dilution, 9 concentration gradients), and make the DMSO content 0.2%. The cell plate was incubated at 37°C in 5% CO2 for 3 days. CyQuant reagent was added and incubated for 1 h. The plates were read by Envision, and IC50 was calculated using XLFIT.
Compound,IC50 [1],IC50 (OVCAR3 cells),IC50 (HT29 cells),"IC50 (OVCAR3 cells; Homo sapiens, OVCAR-3, 72 h)","IC50 (HT29 cells; Homo sapiens, HT-29, 72 h)"
"Cc1cc2nc(n1)N1CCCC(C=CCC3CCN(CC3)c3cc(NS(=O)(=O)CCO)ccc3C(=O)N2)C1 (stereo not shown) [Example 1, 2-Hydroxy-N-(2^6-methyl-4-oxo-3-aza-2(2,4)-pyrimidin-1(1,3),6(1,4)-dipiperidin-5 (1,2)-benzeneheterocyclonon-8-en-5^4-yl)ethane-1-sulfonamide]",62 nM,14 nM,17 nM,–,–
"Cc1cc2nc(n1)N1CCCC(C=CCC3CCN(CC3)c3cc(NS(=O)(=O)CCO)ccc3C(=O)N2)C1 (stereo not shown) [Example 1A, 2-Hydroxy-N-((1^3S,E)-2^6-methyl-4-oxo-3-aza-2(2,4)-pyrimidin-1(1,3),6(1,4)-dipiperidin-5(1,2)-benzoaza-8-en-5^4-yl)ethane-1-sulfonamide]",> 3000 nM,> 3000 nM,> 3000 nM,–,–
"Cc1cc2nc(n1)N1CCCC(C=CCC3CCN(CC3)c3cc(NS(=O)(=O)CCO)ccc3C(=O)N2)C1 (stereo not shown) [Example 1B, 2-Hydroxy-N-((1^3R,E)-2^6-methyl-4-oxo-3-aza-2(2,4)-pyrimidin-1(1,3),6(1,4)-dipiperidin-5(1,2)-benzoaza-8-en-5^4-yl)ethane-1-sulfonamide]",34 nM,6 nM,7 nM,–,–
"Cc1cc2nc(n1)N1CCCC(C=CCC3CCN(CC3)c3cc(NS(=O)(=O)CCO)ccc3C(=O)N2)C1 (stereo not shown) [Example 1C, 2-Hydroxy-N-((1^3S,Z)-2^6-methyl-4-oxo-3-aza-2(2,4)-pyrimidin-1(1,3),6(1,4)-dipiperidin-5(1,2)-benzoaza-8-en-5^4-yl)ethane-1-sulfonamide]",36 nM,61 nM,78 nM,–,–
"Cc1cc2nc(n1)N1CCCC(C=CCC3CCN(CC3)c3cc(NS(=O)(=O)CCO)ccc3C(=O)N2)C1 (stereo not shown) [Example 1D, 2-Hydroxy-N-((1^3R,Z)-2^6-methyl-4-oxo-3-aza-2(2,4)-pyrimidin-1(1,3),6(1,4)-dipiperidin-5(1,2)-benzoaza-8-en-5^4-yl)ethane-1-sulfonamide]",246 nM,506 nM,746 nM,–,–
"Cc1cc2nc(n1)N1CCCC(C=CCC3CCN(CC3)c3cc(NS(=O)(=O)CCO)cnc3C(=O)N2)C1 (stereo not shown) [Example 2, (Z)-2-Hydroxy-N-(2^6-methyl-4-oxo-3-aza-2(2,4)-pyrimidin-5(2,3)-pyridin-1(1,3),6 (1,4)-dipiperidinylcyclononane-8-en-55-yl)ethane-1-sulfonamide]",8 nM,–,–,74 nM,178 nM
"Cc1cc2nc(n1)N1CCCC(CCCC3CCN(CC3)c3cc(NS(=O)(=O)CCO)ccc3C(=O)N2)C1 (stereo not shown) [Example 3, 2-Hydroxy-N-(2^6-methyl-4-oxo-3-aza-2(2,4)-pyrimidin-1(1,3),6(1,4)-dipiperidin-5 (1,2)-benzeneheterocyclononane-5^4-yl)ethane-1-sulfonamide]",98 nM,76 nM,68 nM,–,–
"Cc1cc2nc(n1)N1CCCC(CCCC3CCN(CC3)c3cc(NS(=O)(=O)CCO)ccc3C(=O)N2)C1 (stereo not shown) [Example 3A, 2-Hydroxy-N-((1^3R)-2^6-methyl-4-oxo-3-aza-2(2,4)-pyrimidin-1(1,3),6(1,4)-dipiperidin-5(1,2)-benzeneheterocyclononane-5^4-yl)ethane-1-sulfonamide]",26 nM,1610 nM,1320 nM,–,–
"Cc1cc2nc(n1)N1CCCC(CCCC3CCN(CC3)c3cc(NS(=O)(=O)CCO)ccc3C(=O)N2)C1 (stereo not shown) [Example 3B, 2-Hydroxy-N-((1^3S)-2^6-methyl-4-oxo-3-aza-2(2,4)-pyrimidin-1(1,3),6(1,4)-dipiperidin-5(1,2)-benzeneheterocyclononane-5^4-yl)ethane-1-sulfonamide]",67 nM,36 nM,43 nM,–,–
"Cc1cc2nc(n1)N1CCCC(C=CC3CCCN(C3)c3cc(NS(=O)(=O)CCO)ccc3C(=O)N2)C1 (stereo not shown) [Example 8, (Z)-2-hydroxy-N-(1^6-methyl-7-oxo-8-aza-1(2,4)-pyrimidin-2(1,3),5(3,1)-dipiperidin-6(1,2)-benzeneheterocyclooct-3-en-6^5-yl)ethane-1-sulfonamide]",2300 nM,–,–,> 3000 nM,–
"Cc1cc2nc(n1)N1CCCC(CCC3CCCN(C3)c3cc(NS(=O)(=O)CCO)ccc3C(=O)N2)C1 (stereo not shown) [Example 9, 2-Hydroxy-N-(1^6-methyl-7-oxo-8-aza-1(2,4)-pyrimidin-2(1,3),5(3,1)-dipiperidin-6 (1,2)-benzeneheterocyclooctan-6^5-yl)ethane-1-sulfonamide]",293 nM,–,–,548 nM,–
"Cc1cc2nc(n1)N1CCCC(CCCC3CCCN(C3)c3cc(NS(=O)(=O)CCO)ccc3C(=O)N2)C1 (stereo not shown) [Example 11, 2-Hydroxy-N-(2^6-methyl-4-oxo-3-aza-2(2,4)-pyrimidin-1,6(1,3)-dipiperidin-5(1,2) -benzoylcyclononyl-5^4-yl)ethane-1-sulfonamide]",233 nM,–,–,150 nM,–
"Cc1cc2nc(n1)N1CCOC(CCCC3CCN(CC3)c3cc(NS(=O)(=O)CCO)ccc3C(=O)N2)C1 (stereo not shown) [Example 26, 2-Hydroxy-N-((1^2S)-2^6-methyl-4-oxo-3-aza-1(4,2)-morpholin-2(2,4)-pyrimidin-6(1,4)-piperidin-5(1,2)-benzeneheterocyclononane-5^4-yl)ethane-1-sulfonamide]",15 nM,–,–,–,–
"Cc1cc2nc(n1)N1CCCC(COCC3CCN(CC3)c3cc(NS(=O)(=O)CCO)ccc3C(=O)N2)C1 (stereo not shown) [Example 28A, 2-Hydroxy-N-((1^3R)-2^6-methyl-4-oxo-8-oxa-3-aza-2(2,4)-pyrimidin-1(1,3),6(1,4)-dipiperidin-5(1,2)-benzeneheterocyclononane-5^4-yl)ethane-1-sulfonamide]",178 nM,–,–,–,–
"Cc1cc2nc(n1)N1CCCC(COCC3CCN(CC3)c3cc(NS(=O)(=O)CCO)ccc3C(=O)N2)C1 (stereo not shown) [Example 28B, 2-Hydroxy-N-((1^3S)-2^6-methyl-4-oxo-8-oxa-3-aza-2(2,4)-pyrimidin-1(1,3),6(1,4)-dipiperidin-5(1,2)-benzeneheterocyclononane-5^4-yl)ethane-1-sulfonamide]",743 nM,–,–,–,–
"Cc1cc2nc(n1)OCCOCCC1CCN(CC1)c1cc(NS(=O)(=O)CCO)ccc1C(=O)N2 [Example 29, 2-Hydroxy-N-(5^6-methyl-3-oxo-6,9-dioxa-4-aza-5(4,2)-pyrimidin-1(1,4)-piperidin-2(1,2)-benzeneheterocycloundecane-2^5)ethane-1-sulfonamide]",141 nM,–,–,–,–
